Activity calls are given as the source filed them. The rule behind the calls is not given here.
What follows are molecules tested on CHOP reporter cell assay, percent of control (assay: CHOP reporter inhibitor potency, dose response, cell-based (AID 504322);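 note: CHO cells carrying a CHOP reporter stimulated with tunicamycin to induce ER stress; potency is for inhibition of the stress-induced reporter signal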).
With COc1ccccc1-c1cc(C(F)(F)F)nc(S(=O)(=O)CCCC(=O)NC(C)C)n1 the IC50 was 9.35 µM (inactive).
With CCOc1cc(/C=N\NC(=O)Cc2ccccc2)ccc1OCC(=O)Nc1ccc(C)c(C)c1 the IC50 was 6.38 µM (inactive).
For COc1ccc(CC2(CO)CCN(CC3=Cc4cc(Cl)ccc4OC3)CC2)cc1, the IC50 was 0.87 µM (inactive).
With Cc1sc(NC(=O)c2cccc([N+](=O)[O-])c2)c(C(N)=O)c1-c1ccc(C(C)(C)C)cc1 the IC50 was > 10 µM (inactive).
CC1(c2ccccc2)CC(C)(C)N2C(=O)C3(C(C#N)=C(N)Oc4cc(O)ccc43)c3cccc1c32 (configuration not stated) was tested, and the IC50 was 5.48 µM (inactive).
In the case of CCCCc1nc2ccccc2c(=O)n1NC(=O)c1c(O)c2ccccc2n(C)c1=O, the IC50 is reported as > 10 µM (inactive).
With Nc1nc(-c2ccccc2)c(N=Nc2ccccc2Cl)s1 the IC50 was 8.65 µM (inactive).
With CCCCCCCCCCCCCCCCn1cc[n+](C)c1 the IC50 was 0.86 µM (inactive).
With Nc1nnnn1/N=C/C(Br)=C/c1ccccc1 the IC50 was 9.72 µM (inactive).
O=c1[nH]c(NNC(=S)NC2CCCCC2)nc2c1C1(CCCC1)Cc1ccccc1-2 was tested, and the IC50 was 4.1 µM (inactive).
For COc1cccc(C(=O)C(C#N)=C(SC)SC)c1, the IC50 was > 10 µM (inactive).
For NS(=O)(=O)c1ccc(N/N=C2/CCCCC2C2CCCCC2)c([N+](=O)[O-])c1 (configuration not stated), the IC50 was 5.37 µM (inactive).
O=C1C(N2CCOCC2)=C(n2nnc3ccccc32)C(=O)c2ccccc21 was tested, and the IC50 was 9.64 µM (inactive).
For CCNC(=O)c1c(NC(=O)c2cc(-c3cc(C)ccc3O)n[nH]2)sc2c1CCCC2, the IC50 was 9.58 µM (inactive).
With CCOc1cc(/C=C2/C(=O)ON=C2C)ccc1OCc1ccc(F)cc1 the IC50 was 9.5 µM (inactive).
In the case of CC(C)(C)OC(=O)CNC(=O)c1[nH]cnc1C(=O)Nc1ccc(Cl)cc1, the IC50 is reported as 4.69 µM (inactive).
With COc1cccc(N2CCN(c3ncnc4c3[nH]c3ccccc34)CC2C)c1 (configuration not stated) the IC50 was 4.13 µM.
In the case of CC(C)(C)c1ccc(C2CC2C(=O)N/N=C\c2ccc[nH]2)cc1 (configuration not stated), the IC50 is reported as 4.18 µM (inactive).
COC(=O)[C@@H]1[C@@H](C(=O)OC)C2(c3ccccc3-c3ccccc32)N(c2ccc(Cl)cc2)N1C#N was tested, and the IC50 was 4.53 µM.
Molecule CCN1CCN(Cc2ccc(NC(=O)c3ccc(C)c(NC(=O)c4c[nH]c5cc(C(F)(F)F)ccc5c4=O)c3)cc2C(F)(F)F)CC1 has an IC50 of 4.74 µM.
For C/C(=N\OCc1cccc(C(=O)O)c1)c1ccc(Cl)cc1, the IC50 was 6 µM (inactive).
CCCc1nc2oc(C(=O)c3ccccc3)c(N)c2c2c1COC(C)(C)C2 was tested, and the IC50 was > 10 µM (inactive).
With CC(C)c1ccc2c(c1)C1(NN=C(c3ccccc3)S1)C(=O)N2 (configuration not stated) the IC50 was > 10 µM (inactive).
With FC(F)(F)c1ccc(/C=N/NC(=S)NC2CCCCC2)cc1 the IC50 was 5.03 µM.
With CC1=NNC(=O)/C1=C\c1cn(-c2ccccc2)nc1-c1ccc(F)cc1 the IC50 was 9.5 µM (inactive).
Cc1cccc(/C=N/Nc2ccc3ccccc3n2)c1 was tested, and the IC50 was > 10 µM (inactive).
In the case of CCCCC(CC)Cn1c2nc3ccccc3nc2c2c(=N)oc(C)nc21 (configuration not stated), the IC50 is reported as 7.13 µM (inactive).
For COc1c(CC=C(C)C)cc(C2CC(=O)c3c(O)cc(O)cc3O2)cc1CC=C(C)C (configuration not stated), the IC50 was > 10 µM (inactive).
Work on CN(C)c1ccc(-c2nc3ccccn3c2/N=C/c2ccc(Br)cc2)cc1 yielded an IC50 of 7.04 µM.
With Nc1ccc(N2CCCCCC2)cc1 the IC50 was > 10 µM (inactive).
CCOC(=O)c1cnc(-n2nc(C)cc2C)nc1NC1CCCCC1 was tested, and the IC50 was > 10 µM (inactive).
Work on Cc1ccccc1CS(=O)(=O)c1nnc([C@H](CC(C)C)NC(=O)OC(C)(C)C)o1 yielded an IC50 of 4.63 µM.
Work on CCNc1nc(Oc2c(Cl)cccc2Cl)cc(C(F)(F)F)n1 yielded an IC50 of 2.74 µM.
With Cc1ccc(NC(=O)CSc2nc3ccccc3c3nc(CCc4c(C)n[nH]c4C)nn23)cc1F the IC50 was 9.71 µM (inactive).
NC(=O)CC(NC(=O)Cc1cccc2ccccc12)c1ccc(NCCOc2ccccc2)c([N+](=O)[O-])c1 (configuration not stated) was tested, and the IC50 was 8.33 µM (inactive).
For O=S(=O)(NC1CC1)c1ccc(S(=O)(=O)N2CCCC3(CCCCC3)C2)cc1, the IC50 was 6.79 µM (inactive).
With COc1cc(/C=C/C(=O)OC2CC3CCC2(C)C3(C)C)ccc1O (configuration not stated) the IC50 was 9.52 µM (inactive).
With CCCCCCCn1c(=O)c(C(=O)Nc2cnccn2)c(O)c2ccccc21 the IC50 was 3.68 µM.
With O=C(N/N=C/c1ccccn1)c1cc(-c2ccc3ccccc3c2)n[nH]1 the IC50 was > 10 µM (inactive).
O=C1C=CC(=O)N1N(c1ccccc1)c1ccccc1 was tested, and the IC50 was > 10 µM (inactive).
With N#C/C(=C\c1ccc([N+](=O)[O-])o1)c1nc2ccccc2[nH]1 the IC50 was 2.74 µM.
CCCCCCCCCCCCCCCC[n+]1ccc(/C=N/O)cc1 showed an IC50 of 3.1 µM.
In the case of CC(C)NC(=O)c1ccccc1NC(=O)/C=C/c1cccc([N+](=O)[O-])c1, the IC50 is reported as 5.83 µM (inactive).
In the case of O=C1C(Nc2ccc(O)cc2)=C/C(=N/S(=O)(=O)c2cccs2)c2ccccc21, the IC50 is reported as 1.19 µM.
CCc1ccc(OCC(=O)NC(NC(=S)Nc2ccc(C)cc2C)C(Cl)(Cl)Cl)cc1 (configuration not stated) was tested, and the IC50 was 8.46 µM (inactive).
Cc1nnc(NC(=O)c2sc3nc(-c4cccs4)cc(C(F)(F)F)c3c2N)s1 was tested, and the IC50 was 5.97 µM (inactive).
With CCN(CC)CCn1c(SCC(=O)Nc2ccc(F)cc2)nc2c(sc3ccccc32)c1=O the IC50 was > 10 µM (inactive).
CC(=O)Nc1ccc(NC2=Nc3ccccc3N3C2=Nc2c(c(C)nn2-c2ccccc2)C3c2ccccc2)cc1 (configuration not stated) gave an IC50 of 4.24 µM.
In the case of CC(C)(C)C1CCC(C(=O)OCC(=O)c2ccc[nH]2)CC1 (configuration not stated), the IC50 is reported as 6.04 µM (inactive).
Cc1ccccc1CS(=O)(=O)c1nnc([C@H](Cc2ccccc2)NC(=O)OC(C)(C)C)o1 gave an IC50 of 4.01 µM.
For CC(C)Cn1c(N)c(C(=O)COC(=O)C2CCCCC2)c(=O)n(C)c1=O, the IC50 was > 10 µM (inactive).
Cc1cccc(OCc2n(CC(=O)OC3CC(C)CCC3C(C)C)c3ccccc3[n+]2C)c1 (configuration not stated) was tested, and the IC50 was > 10 µM (inactive).
Molecule COc1ccc(NC(=O)/C(Cl)=C(/Cl)S(=O)Cc2ccccc2Cl)cn1 (configuration not stated) has an IC50 of 0.3 µM.
For Cc1nn(Cc2c(Cl)cccc2Cl)c(C)c1NC(=O)c1cn(-c2ccccc2)nc1-c1ccccc1, the IC50 was 4.8 µM.
Cn1c(=O)[nH]c(=O)c2[nH]c(N(Cc3ccccc3)Cc3ccccc3)nc21 was tested, and the IC50 was 6.18 µM (inactive).
In the case of CCc1ccc(NP(=O)(Oc2ccccc2F)Oc2ccccc2F)cc1, the IC50 is reported as 9.66 µM (inactive).
In the case of CC1=C/C(=N\OS(=O)(=O)c2ccccc2)C=CC1=O, the IC50 is reported as 1.43 µM.
For Nc1c(C(=O)Nc2ccccc2F)sc2nc(-c3cccnc3)ccc12, the IC50 was > 10 µM (inactive).
In the case of COc1cc(C)nc(N2CCCC(C(=O)Nc3cccc(Cl)c3C)C2)n1 (configuration not stated), the IC50 is reported as 6.3 µM (inactive).
In the case of N=c1n(Cc2ccccc2)c2ccccc2n1CC(O)COc1ccc(Cl)cc1Cl (configuration not stated), the IC50 is reported as 6.92 µM (inactive).
For CC(C)(C)C(=O)Nc1ccc(-c2nc3ccccc3c(=O)o2)cc1, the IC50 was 0.7 µM (inactive).
For CN(C)c1ccc(/C=C2\SC(=O)N(CCc3nnc(N)s3)C2=O)cc1, the IC50 was 9.8 µM (inactive).
For Cc1ccccc1OCc1n(CC(=O)OC2CC(C)CCC2C(C)C)c2ccccc2[n+]1C (configuration not stated), the IC50 was > 10 µM (inactive).
In the case of CC(=O)N(C1=C(Cl)C(=O)c2ccccc2C1=O)C1CCCCC1, the IC50 is reported as 8.08 µM (inactive).
In the case of Cc1ccc(NC2=C/C(=N\S(=O)(=O)c3cccs3)c3ccccc3C2=O)c(C)c1, the IC50 is reported as 4.52 µM.
With CN=C1SC(CC(=O)Nc2ccc(F)cc2F)C(=O)N1/N=C/c1ccc(OC(F)F)c(OC)c1 (configuration not stated) the IC50 was 9.78 µM (inactive).
For CCN1C=CC(=C2C(=O)c3ccccc3C2=O)C=C1, the IC50 was 1.11 µM (inactive).
With O=c1c(Cl)c(Cl)cnn1Cc1nnc(-c2ccccc2Br)o1 the IC50 was 3.77 µM.
Molecule COc1ccc(/C=N\NC(=O)COc2ccc(C(C)(C)C)cc2)cc1Cn1nc(C)cc1C has an IC50 of 2.99 µM.
In the case of C=C1C(=O)O[C@@H]2C[C@@H](C)[C@@H]3C4OC4C(=O)[C@@]3(C)[C@@H](O)[C@H]12 (some centres not stated), the IC50 is reported as 9.5 µM (inactive).
In the case of CC(C)(C)c1ccc(-c2n[nH]c(=S)n2C2CCCC2)cc1, the IC50 is reported as 7.55 µM (inactive).
In the case of CC1CN(S(=O)(=O)c2ccc(C(=O)Nc3nc(-c4cc5ccccc5o4)cs3)cc2)CC(C)O1 (configuration not stated), the IC50 is reported as 9.56 µM (inactive).
CCCCc1ccc(Nc2nc(CCC)cc(=O)[nH]2)cc1 was tested, and the IC50 was 1.97 µM (inactive).
With OC(CNCC1CCCO1)Cn1c2ccc(Br)cc2c2cc(Br)ccc21 (configuration not stated) the IC50 was 8.2 µM (inactive).
For CCCCCCCCCCCCCCCC[n+]1cccc2ccccc21, the IC50 was 0.41 µM.
With CCCC(=O)N1CCN(c2ccc(NC(=O)c3cc4ccccc4o3)cc2Cl)CC1 the IC50 was 5.4 µM (inactive).
With CCOc1ccc(C2C=C(c3ccc(C)cc3)Nc3nnnn32)cc1 (configuration not stated) the IC50 was 9.86 µM (inactive).
In the case of O=C1CC(Sc2nnnn2-c2ccccc2)C(=O)N1c1cccc(Cl)c1 (configuration not stated), the IC50 is reported as > 10 µM (inactive).
For CCOC(=O)c1c(N)sc(C(O)(C(F)(F)F)C(F)(F)F)c1-c1ccc(Cl)cc1, the IC50 was 9.37 µM (inactive).
CC(C)(C)c1cc(S(=O)(=O)CCc2ccccn2)cc(C(C)(C)C)c1F gave an IC50 of 3.6 µM.
In the case of CCCN1C=CC(=C2C(=O)c3ccccc3C2=O)C=C1, the IC50 is reported as 1.78 µM (inactive).
O=[N+]([O-])c1ccc(-c2nc(C(Cl)Cl)c3ccccc3n2)cc1 gave an IC50 of 0.19 µM.
